From the supplement of paper PMC10883282

How the values were obtained:
Test in all cases: relative viability vs DMSO control (72 h) (fraction); higher = more viable cells
[1] = system: A204
Summary of the method: (§1)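 Densities for seeding sarcoma cell lines into 384-well plates were set to give 80–90% confluence. After 24 h, 2.5 µl of serially diluted compound from source plates of 10 mM to 0.0002 mM went in, and plates stayed 72 h at 37 °C in 5% CO2 with 0.1% DMSO vehicle and a 5 µM positive control. Percent growth from ATPLite readings, averaged over up to triplicate wells, served as relative viability, rescaled so 1 means full and 0 means none.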

[2] = system: G401
Summary of the method: as §1

[3] = system: HS729
Summary of the method: as §1

[4] = system: KHOS-240S
Summary of the method: as §1

[5] = system: MES-SA
Summary of the method: as §1

[6] = system: RD
Summary of the method: as §1

[7] = system: SK-ES-1
Summary of the method: as §1

[8] = system: SK-LMS-1
Summary of the method: as §1

[9] = system: SW1353
Summary of the method: as §1

[10] = system: SW872
Summary of the method: as §1

[11] = system: SW982
Summary of the method: as §1

[12] = system: VA-ES-BJ
Summary of the method: as §1

CNC(=O)c1c(C)oc2cc(Oc3ncnc4cc(OC)c(OC)cc34)ccc12 [Fruquintinib]
Conditions	relative viability
[1], 0.00017 µM	1.06
[1], 0.00051 µM	1.09
[1], 0.00152 µM	1.05
[1], 0.00457 µM	1.05
[1], 0.01372 µM	1.06
[1], 0.04115 µM	0.999
[1], 0.1235 µM	0.967
[1], 0.3704 µM	0.73
[1], 1.111 µM	0.409
[1], 3.333 µM	0.32
[1], 10 µM	0.258
[2], 0.00017 µM	0.988
[2], 0.00051 µM	1.02
[2], 0.00152 µM	1.02
[2], 0.00457 µM	0.986
[2], 0.01372 µM	1.03
[2], 0.04115 µM	1.01
[2], 0.1235 µM	0.965
[2], 0.3704 µM	0.953
[2], 1.111 µM	0.9
[2], 3.333 µM	0.698
[2], 10 µM	0.57
[3], 0.00017 µM	1.09
[3], 0.00051 µM	1
[3], 0.00152 µM	0.959
[3], 0.00457 µM	0.961
[3], 0.01372 µM	0.908
[3], 0.04115 µM	0.927
[3], 0.1235 µM	0.896
[3], 0.3704 µM	0.852
[3], 1.111 µM	0.794
[3], 3.333 µM	0.717
[3], 10 µM	0.657
[4], 0.00017 µM	1.06
[4], 0.00051 µM	1.07
[4], 0.00152 µM	1.08
[4], 0.00457 µM	1.07
[4], 0.01372 µM	1.07
[4], 0.04115 µM	1.08
[4], 0.1235 µM	1.03
[4], 0.3704 µM	0.987
[4], 1.111 µM	0.9394
[4], 3.333 µM	0.8
[4], 10 µM	0.755
[5], 0.00017 µM	0.96
[5], 0.00051 µM	0.975
[5], 0.00152 µM	0.943
[5], 0.00457 µM	0.935
[5], 0.01372 µM	0.947
[5], 0.04115 µM	0.9442
[5], 0.1235 µM	0.922
[5], 0.3704 µM	0.929
[5], 1.111 µM	0.9218
[5], 3.333 µM	0.855
[5], 10 µM	0.806
[6], 0.00017 µM	1.03
[6], 0.00051 µM	1.09
[6], 0.00152 µM	1.09
[6], 0.00457 µM	1.1
[6], 0.01372 µM	1.07
[6], 0.04115 µM	1.08
[6], 0.1235 µM	1.06
[6], 0.3704 µM	1.089
[6], 1.111 µM	1.08
[6], 3.333 µM	1.08
[6], 10 µM	1.04
[7], 0.00017 µM	1.01
[7], 0.00051 µM	1.07
[7], 0.00152 µM	1.04
[7], 0.00457 µM	1.07
[7], 0.01372 µM	1.06
[7], 0.04115 µM	1.1
[7], 0.1235 µM	1.05
[7], 0.3704 µM	1
[7], 1.111 µM	0.971
[7], 3.333 µM	0.951
[7], 10 µM	0.926
[8], 0.00017 µM	1.11
[8], 0.00051 µM	1.1
[8], 0.00152 µM	1.106
[8], 0.00457 µM	1.1
[8], 0.01372 µM	1.1
[8], 0.04115 µM	1.07
[8], 0.1235 µM	1.07
[8], 0.3704 µM	1.04
[8], 1.111 µM	1.01
[8], 3.333 µM	0.976
[8], 10 µM	0.991
[9], 0.00017 µM	1.051
[9], 0.00051 µM	1.02
[9], 0.00152 µM	1.02
[9], 0.00457 µM	1.01
[9], 0.01372 µM	1.02
[9], 0.04115 µM	1.01
[9], 0.1235 µM	0.997
[9], 0.3704 µM	0.925
[9], 1.111 µM	0.863
[9], 3.333 µM	0.746
[9], 10 µM	0.763
[10], 0.00017 µM	1.09
[10], 0.00051 µM	1.06
[10], 0.00152 µM	1.03
[10], 0.00457 µM	1.04
[10], 0.01372 µM	1.03
[10], 0.04115 µM	0.988
[10], 0.1235 µM	1
[10], 0.3704 µM	0.963
[10], 1.111 µM	0.9736
[10], 3.333 µM	0.893
[10], 10 µM	0.852
[11], 0.00017 µM	1.03
[11], 0.00051 µM	1.03
[11], 0.00152 µM	1.04
[11], 0.00457 µM	1.02
[11], 0.01372 µM	1.03
[11], 0.04115 µM	1.04
[11], 0.1235 µM	1.048
[11], 0.3704 µM	1.04
[11], 1.111 µM	1.04
[11], 3.333 µM	0.992
[11], 10 µM	0.925
[12], 0.00017 µM	1.05
[12], 0.00051 µM	1.02
[12], 0.00152 µM	1.03
[12], 0.00457 µM	1
[12], 0.01372 µM	0.997
[12], 0.04115 µM	1.01
[12], 0.1235 µM	0.996
[12], 0.3704 µM	1.03
[12], 1.111 µM	0.995
[12], 3.333 µM	0.953
[12], 10 µM	0.936
